Test system: Bcl-2/Bax ratio
Assay: Western blot, whole cell and mitochondrial fraction
Assay type: in vivo, mice
Conditions: 20 mg/kg ip 10 min after CCI
Experimental: Three sets of experiments were performed. The first set was to investigate the protective effects of salidroside. All animals were randomized into 1 of 3 groups (sham injury, CCI + vehicle, CCI + SALD 20). Surgery/injury, behavioral testing, and tissue analyses were performed by different individuals. Behavioral testing and tissue analyses were performed by individuals blinded to the treatment group. Salidroside (Cayman Chemical, Ann Arbor, MI, USA) dissolved in normal saline (0.25 mL) or a corresponding volume of vehicle (saline) was administered intraperitoneally 10 min following injury. Testing after injury was completed as follows: 1) behavioral testing at days 1, 4, 7, 14, 21, and 28 (n = 8–10 mice/group); 2) cresyl violet staining at day 28 (n = 9 mice/group); 3) histology, determination of brain water content, and western blot analysis at day 1 or 3 (n = 5–6 mice/group). To determine the optimal dose of salidroside, a pilot study was performed using 2 different doses (20 and 50 mg/kg) administered 10 min after injury, and neurological deficits and tissue damage were evaluated as the main outcomes. […] Protein concentration was determined by Bradford reagent spectrophotometrically at A595. […] The relative intensity of protein signals was normalized to the corresponding β-actin intensity and was quantified by densitometric analysis with the use of Image J software. […]

OC[C@H]1O[C@@H](OCCc2ccc(O)cc2)[C@H](O)[C@@H](O)[C@@H]1O [SALD, salidroside]
mitochondrial Bcl-2/Bax ratio, % of the level in vehicle injured brains (day 1, P<0.05): 150.6% | whole cell Bcl-2/Bax ratio, slight increase versus vehicle (whole cell level): did not reach statistical significance
